# Test results reported in patent publication US9957247B2, “SecA inhibitors and methods of making and using thereof” (Georgia State University Research Foundation, Inc., priority 2012, dated 2018).
# Like-named read-outs stand apart in the source and are kept apart here.
# Experiments:
# BsSecA [1] = target: T1, BsSecA (Bacillus subtilis, UniProt P28366); assay: cell-based; design: species or system B. subtilis
# B. subtilis 168 = assay: Bacteriostatic effect, liquid microdilution, B. subtilis 168; assay type: cell-based; conditions: Bacillus subtilis, Example 2
# EcSecA [2] = test system: EcSecA
# EcSecA [3] = target: T2, EcSecA (Escherichia coli, UniProt P10408); assay: cell-based
# Target sequence in this assay (P10408 whole entry): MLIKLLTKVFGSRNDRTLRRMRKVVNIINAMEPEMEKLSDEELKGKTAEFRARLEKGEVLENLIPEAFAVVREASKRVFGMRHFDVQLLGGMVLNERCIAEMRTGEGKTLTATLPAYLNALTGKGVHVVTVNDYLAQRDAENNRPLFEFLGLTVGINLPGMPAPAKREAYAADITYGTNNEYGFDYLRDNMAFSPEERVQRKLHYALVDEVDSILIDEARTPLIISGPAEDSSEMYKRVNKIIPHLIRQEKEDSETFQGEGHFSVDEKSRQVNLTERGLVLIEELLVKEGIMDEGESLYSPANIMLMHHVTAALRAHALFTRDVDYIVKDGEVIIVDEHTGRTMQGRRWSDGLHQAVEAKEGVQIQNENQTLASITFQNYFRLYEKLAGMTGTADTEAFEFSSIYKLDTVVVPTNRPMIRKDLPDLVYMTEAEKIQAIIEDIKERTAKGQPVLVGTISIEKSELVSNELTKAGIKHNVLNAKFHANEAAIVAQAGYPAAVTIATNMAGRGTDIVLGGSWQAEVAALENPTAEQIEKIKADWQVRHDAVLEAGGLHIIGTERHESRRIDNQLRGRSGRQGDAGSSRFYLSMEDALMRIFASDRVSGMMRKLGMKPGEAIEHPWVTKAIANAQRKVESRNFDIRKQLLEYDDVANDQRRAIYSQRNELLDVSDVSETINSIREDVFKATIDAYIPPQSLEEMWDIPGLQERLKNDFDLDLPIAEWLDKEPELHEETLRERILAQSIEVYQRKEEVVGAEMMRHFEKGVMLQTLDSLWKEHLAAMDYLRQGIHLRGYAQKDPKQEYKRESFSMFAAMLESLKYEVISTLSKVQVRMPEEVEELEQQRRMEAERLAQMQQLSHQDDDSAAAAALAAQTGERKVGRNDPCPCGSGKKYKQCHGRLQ
# BsSecA [4] = target: T1, BsSecA; assay: biochemical; assay type: biochemical, B. subtilis
# EcSecA N68 = EcSecA N68 (Escherichia coli, UniProt P10408); assay: biochemical; assay type: biochemical, E. coli
# F1F0-proton ATPase = F1F0-proton ATPase (Escherichia coli, UniProt P0ABB0+P0ABB4); assay: Proton ATPase activity, reconstituted liposomes; assay type: biochemical, E. coli; conditions: Example 1; read-out: IC50 against F1F0-proton ATPase
# Protocol: The N-terminal catalytic domain of SecA from E. coli (EcN68) was overexpressed from pIMBB28. EcN68 was used for the early and initial screening because it has higher intrinsic activity and is more sensitive to inhibitors. […] SecA proteins were purified as previously described. F1F0-proton ATPase-enriched membrane of E. coli strain KY7485 was prepared as described in the literature. F1F0-proton ATPase was partially purified by sucrose-gradient fractionation and then reconstituted into liposomes by dialysis. Non-radiolabeled and [^35S]-labeled proOmpA were purified as previously described. SecA-depleted BA13 membrane vesicles were prepared as described in the literature,[32] and washed with 6M urea to reduce endogenous ATPase activity.
# EcSecA [5] = assay type: biochemical, E. coli; conditions: at low ATP concentrations
# EcSecA [6] = target: T2, EcSecA
# Target sequence in this assay (P0AG99 whole entry): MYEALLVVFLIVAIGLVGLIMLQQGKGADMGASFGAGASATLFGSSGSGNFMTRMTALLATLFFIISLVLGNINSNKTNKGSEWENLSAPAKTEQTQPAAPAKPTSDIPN
# Target sequence in this assay (P10408 whole entry): as the sequence (P10408 whole entry) above
# Target sequence in this assay (P0AGA2 whole entry, further chain): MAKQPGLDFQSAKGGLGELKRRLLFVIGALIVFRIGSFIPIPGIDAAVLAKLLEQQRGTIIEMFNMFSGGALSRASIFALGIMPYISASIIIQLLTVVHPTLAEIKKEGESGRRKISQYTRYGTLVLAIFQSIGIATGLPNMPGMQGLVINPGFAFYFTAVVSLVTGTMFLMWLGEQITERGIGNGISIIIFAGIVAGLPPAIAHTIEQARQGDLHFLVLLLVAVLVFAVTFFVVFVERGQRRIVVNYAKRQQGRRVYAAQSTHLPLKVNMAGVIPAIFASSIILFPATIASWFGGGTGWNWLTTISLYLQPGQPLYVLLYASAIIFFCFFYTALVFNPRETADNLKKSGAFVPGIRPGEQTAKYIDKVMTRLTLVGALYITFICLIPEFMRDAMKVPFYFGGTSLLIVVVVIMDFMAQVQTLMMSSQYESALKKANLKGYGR
# Target sequence in this assay (P0AG96 whole entry, further chain): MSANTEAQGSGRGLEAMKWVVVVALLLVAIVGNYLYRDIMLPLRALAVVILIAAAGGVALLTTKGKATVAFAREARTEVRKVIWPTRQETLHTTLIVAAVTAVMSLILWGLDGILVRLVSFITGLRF
# EcSecA [7] = target: T2, EcSecA; conditions: read-out: IC50, in vitro protein translocation of proOmpA; Example 1
# Target sequence in this assay (P0AG99 whole entry): as the sequence (P0AG99 whole entry) above
# Target sequence in this assay (P10408 whole entry): as the sequence (P10408 whole entry) above
# Target sequence in this assay (P0AGA2 whole entry, further chain): as the sequence (P0AGA2 whole entry, further chain) above
# Target sequence in this assay (P0AG96 whole entry, further chain): as the sequence (P0AG96 whole entry, further chain) above
# EcSecA [8] = target: T2, EcSecA; conditions: read-out: IC50, membrane ATPase activity of EcSecA; Example 1
# Target sequence in this assay (P0AG99 whole entry): as the sequence (P0AG99 whole entry) above
# Target sequence in this assay (P10408 whole entry): as the sequence (P10408 whole entry) above
# Target sequence in this assay (P0AGA2 whole entry, further chain): as the sequence (P0AGA2 whole entry, further chain) above
# Target sequence in this assay (P0AG96 whole entry, further chain): as the sequence (P0AG96 whole entry, further chain) above
# BaSecA1 = BaSecA1 (Bacillus anthracis, UniProt Q81X26); assay: cell-based; conditions: read-out: IC50, Ion Channel activity, BGaSecA 1
# PaSecA = PaSecA (Pseudomonas aeruginosa, UniProt Q9LCT3); assay: cell-based; assay type: cell-based; conditions: IC50, Ion Channel activity, PASecA, Table 1
# MsSecA = MsSecA (Mycolicibacterium smegmatis, UniProt P71533); assay: SecA-liposomes ion-channel activity in oocytes, MsSecA; assay type: cell-based; conditions: Table 1
# MtbSecA = MtbSecA (Mycobacterium tuberculosis, UniProt P9WGP5); assay: cell-based
# SpSecA = SpSecA (Streptococcus pyogenes, UniProt Q99Y96); assay type: cell-based; conditions: read-out: IC50, Ion Channel activity, SpSecA
# S. pyogenes, MGAS5005 = assay: MIC95, S. pyogenes MGAS5005; assay type: cell-based; conditions: Streptococcus pyogenes, MGAS5005; read-out: MIC95, S. pyogenes MGAS5005
# EcSecA [9] = target: T2, EcSecA; conditions: read-out: IC50, Ion Channel activity, EcSecA; Table 1
# Target sequence in this assay (P10408 whole entry): as the sequence (P10408 whole entry) above
# SaSecA1 = target: T3, SaSecA1 (Staphylococcus aureus, UniProt O06446); conditions: read-out: IC50, Ion Channel activity, SaSecA1; Table 1
# T3 sequence (O06446 1-843): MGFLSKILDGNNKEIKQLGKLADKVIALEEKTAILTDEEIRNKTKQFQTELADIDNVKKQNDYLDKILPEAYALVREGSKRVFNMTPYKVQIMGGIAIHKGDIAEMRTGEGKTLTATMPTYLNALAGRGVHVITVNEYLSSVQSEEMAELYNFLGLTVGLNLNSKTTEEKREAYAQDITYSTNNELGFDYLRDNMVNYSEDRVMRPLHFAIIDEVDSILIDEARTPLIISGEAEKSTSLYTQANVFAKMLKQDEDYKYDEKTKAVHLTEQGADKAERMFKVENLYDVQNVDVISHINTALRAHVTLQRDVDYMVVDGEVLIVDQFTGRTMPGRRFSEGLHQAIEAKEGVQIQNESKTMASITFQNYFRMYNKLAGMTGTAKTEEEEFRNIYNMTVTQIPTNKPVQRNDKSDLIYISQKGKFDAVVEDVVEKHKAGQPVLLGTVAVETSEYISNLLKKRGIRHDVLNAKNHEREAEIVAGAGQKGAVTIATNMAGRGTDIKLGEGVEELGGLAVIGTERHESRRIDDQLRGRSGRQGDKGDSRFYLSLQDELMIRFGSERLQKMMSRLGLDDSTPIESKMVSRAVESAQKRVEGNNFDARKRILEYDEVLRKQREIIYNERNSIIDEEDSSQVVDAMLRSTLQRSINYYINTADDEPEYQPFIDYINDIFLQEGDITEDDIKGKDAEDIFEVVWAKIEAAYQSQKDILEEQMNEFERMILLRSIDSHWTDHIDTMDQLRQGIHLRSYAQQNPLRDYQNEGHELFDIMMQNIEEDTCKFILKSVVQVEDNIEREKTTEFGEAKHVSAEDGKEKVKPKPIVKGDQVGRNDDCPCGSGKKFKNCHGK
# EcSecA [10] = target: T2, EcSecA; assay: biochemical; conditions: IC50, Protein Translocation, Table 1
# Target sequence in this assay (P0AG99 whole entry): as the sequence (P0AG99 whole entry) above
# Target sequence in this assay (P10408 whole entry): as the sequence (P10408 whole entry) above
# Target sequence in this assay (P0AGA2 whole entry, further chain): as the sequence (P0AGA2 whole entry, further chain) above
# Target sequence in this assay (P0AG96 whole entry, further chain): as the sequence (P0AG96 whole entry, further chain) above
# S. aureus Mu50 = assay: Bacteriostatic effect, S. aureus Mu50; conditions: Staphylococcus aureus, MU50, read-out: MIC95 against drug resistant S. aureus Mu50
# BsSecA2 = conditions: read-out: IC50, Intrinsic ATPase, BsSecA2; Table 1
# SaSecA2 = target: T4, SaSecA2 (Staphylococcus aureus, UniProt Q2FUW6); assay: ATPase activity assay (malachite green), SaSecA2; conditions: IC50, Intrinsic ATPase, SaSecA2, Table 1
# T4 sequence (Q2FUW6 1-796): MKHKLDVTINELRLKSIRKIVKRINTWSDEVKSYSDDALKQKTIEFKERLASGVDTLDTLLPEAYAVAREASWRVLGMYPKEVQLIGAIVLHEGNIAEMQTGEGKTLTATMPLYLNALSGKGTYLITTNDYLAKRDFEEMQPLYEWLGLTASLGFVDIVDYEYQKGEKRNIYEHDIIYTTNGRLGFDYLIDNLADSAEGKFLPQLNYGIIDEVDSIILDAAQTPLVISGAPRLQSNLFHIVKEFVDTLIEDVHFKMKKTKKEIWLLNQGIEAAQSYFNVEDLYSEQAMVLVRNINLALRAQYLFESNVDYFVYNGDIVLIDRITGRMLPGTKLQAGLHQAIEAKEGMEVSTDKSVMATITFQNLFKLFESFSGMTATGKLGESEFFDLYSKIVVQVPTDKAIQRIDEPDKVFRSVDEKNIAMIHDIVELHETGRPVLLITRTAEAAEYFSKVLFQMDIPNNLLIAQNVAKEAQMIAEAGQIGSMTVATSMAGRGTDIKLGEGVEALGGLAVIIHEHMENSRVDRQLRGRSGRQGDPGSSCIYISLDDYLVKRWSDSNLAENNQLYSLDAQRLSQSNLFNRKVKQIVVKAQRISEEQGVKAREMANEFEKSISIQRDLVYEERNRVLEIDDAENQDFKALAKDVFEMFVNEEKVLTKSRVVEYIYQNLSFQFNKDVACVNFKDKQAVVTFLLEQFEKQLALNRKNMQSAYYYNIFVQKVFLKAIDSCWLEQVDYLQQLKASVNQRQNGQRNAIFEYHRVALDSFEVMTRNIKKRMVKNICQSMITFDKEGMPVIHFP
# T1 sequence (P28366 whole entry): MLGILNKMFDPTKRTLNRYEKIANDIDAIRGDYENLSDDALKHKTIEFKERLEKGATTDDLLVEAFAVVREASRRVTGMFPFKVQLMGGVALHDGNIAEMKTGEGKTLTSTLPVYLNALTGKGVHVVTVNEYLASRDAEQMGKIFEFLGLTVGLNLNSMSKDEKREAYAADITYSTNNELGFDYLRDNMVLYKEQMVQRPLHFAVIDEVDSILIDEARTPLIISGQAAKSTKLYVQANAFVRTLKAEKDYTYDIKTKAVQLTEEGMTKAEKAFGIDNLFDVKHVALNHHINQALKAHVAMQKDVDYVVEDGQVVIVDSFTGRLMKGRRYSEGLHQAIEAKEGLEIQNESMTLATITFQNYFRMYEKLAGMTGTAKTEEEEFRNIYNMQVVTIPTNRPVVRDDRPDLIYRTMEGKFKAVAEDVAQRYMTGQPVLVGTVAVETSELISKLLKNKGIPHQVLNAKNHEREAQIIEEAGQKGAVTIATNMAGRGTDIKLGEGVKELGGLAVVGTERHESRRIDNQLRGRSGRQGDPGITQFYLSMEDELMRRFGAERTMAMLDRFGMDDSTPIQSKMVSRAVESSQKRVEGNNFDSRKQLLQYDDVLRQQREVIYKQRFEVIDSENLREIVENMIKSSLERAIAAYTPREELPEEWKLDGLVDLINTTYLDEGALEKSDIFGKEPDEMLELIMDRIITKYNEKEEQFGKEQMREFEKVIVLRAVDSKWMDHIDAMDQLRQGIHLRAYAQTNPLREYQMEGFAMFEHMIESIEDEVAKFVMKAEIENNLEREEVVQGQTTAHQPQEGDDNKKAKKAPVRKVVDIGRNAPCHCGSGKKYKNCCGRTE
# Sequence of EcSecA N68 (P10408 1-610): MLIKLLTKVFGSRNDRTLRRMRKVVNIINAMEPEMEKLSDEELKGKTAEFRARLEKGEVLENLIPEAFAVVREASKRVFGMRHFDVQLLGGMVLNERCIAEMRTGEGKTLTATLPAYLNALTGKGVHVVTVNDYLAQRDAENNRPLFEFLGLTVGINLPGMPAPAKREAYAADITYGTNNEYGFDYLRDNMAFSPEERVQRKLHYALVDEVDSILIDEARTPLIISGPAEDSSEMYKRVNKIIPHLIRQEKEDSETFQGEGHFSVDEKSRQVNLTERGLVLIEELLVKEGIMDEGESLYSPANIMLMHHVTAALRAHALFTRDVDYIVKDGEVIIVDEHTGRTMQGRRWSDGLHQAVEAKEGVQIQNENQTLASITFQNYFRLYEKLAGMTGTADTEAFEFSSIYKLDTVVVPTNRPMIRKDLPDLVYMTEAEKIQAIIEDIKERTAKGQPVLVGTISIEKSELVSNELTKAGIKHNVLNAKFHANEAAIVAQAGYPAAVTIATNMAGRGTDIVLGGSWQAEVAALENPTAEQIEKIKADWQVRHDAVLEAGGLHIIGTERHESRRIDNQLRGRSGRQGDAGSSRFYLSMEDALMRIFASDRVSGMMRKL
# Sequence of MtbSecA (P9WGP5 whole entry): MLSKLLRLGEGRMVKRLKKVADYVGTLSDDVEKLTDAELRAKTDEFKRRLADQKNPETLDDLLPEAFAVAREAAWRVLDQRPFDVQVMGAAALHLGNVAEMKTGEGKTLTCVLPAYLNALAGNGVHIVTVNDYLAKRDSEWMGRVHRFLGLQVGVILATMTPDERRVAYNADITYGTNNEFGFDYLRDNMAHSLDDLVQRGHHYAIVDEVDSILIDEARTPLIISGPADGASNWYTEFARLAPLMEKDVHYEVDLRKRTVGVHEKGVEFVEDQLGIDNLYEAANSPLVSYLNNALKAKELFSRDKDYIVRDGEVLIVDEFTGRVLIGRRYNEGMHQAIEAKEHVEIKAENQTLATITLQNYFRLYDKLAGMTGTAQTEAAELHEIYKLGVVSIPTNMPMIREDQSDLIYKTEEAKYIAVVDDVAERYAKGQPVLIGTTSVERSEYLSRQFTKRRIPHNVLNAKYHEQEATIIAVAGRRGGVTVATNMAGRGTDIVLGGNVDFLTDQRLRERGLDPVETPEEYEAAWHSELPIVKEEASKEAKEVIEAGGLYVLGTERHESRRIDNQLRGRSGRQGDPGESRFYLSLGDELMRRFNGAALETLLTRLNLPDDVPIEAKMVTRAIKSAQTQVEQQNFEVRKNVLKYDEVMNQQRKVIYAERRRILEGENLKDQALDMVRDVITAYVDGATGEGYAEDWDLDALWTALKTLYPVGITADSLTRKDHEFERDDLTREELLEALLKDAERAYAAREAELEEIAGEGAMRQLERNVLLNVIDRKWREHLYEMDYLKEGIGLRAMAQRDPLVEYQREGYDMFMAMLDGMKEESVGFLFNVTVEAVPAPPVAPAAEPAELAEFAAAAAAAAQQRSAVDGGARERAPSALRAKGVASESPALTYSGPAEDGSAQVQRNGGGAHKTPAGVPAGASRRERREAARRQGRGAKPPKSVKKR
structure (smiles),measurement,setting,value
"Oc1ccc2c(c1)Oc1cc(O)ccc1C2C1CCCCC1 [Compound 22d, 9-Cyclohexyl-9H-xanthene-3,6-diol]",IC50,"BsSecA [1]; Ion channel, IC50, BsSecA, Table 5",6.6 µM
same,MIC,B. subtilis 168,22 µM
same,"Potency against EcSecA over BsSecA, channel activity",EcSecA [2],about 2 fold
same,IC50,EcSecA [3],2.8 µM
"O.O=C([O-])c1ccccc1-c1c2cc(I)c(=O)c(I)c-2oc2c(I)c([O-])c(I)cc12.[Na+].[Na+] [EB, Erythrosin B]",Effect on the intrinsic ATPase activity of BsSecA,BsSecA [4]; Example 1,inhibitory effects
same,IC50,"EcSecA N68; Example 1, fluorescein analogs, read-out: IC50, EcN68 SecA ATPase (unregulated ATPase)",2 µM
same,IC50,F1F0-proton ATPase,~30 µM
same,Mode of inhibition against ATP,EcSecA [5],competitive inhibitors
same,IC50,"EcSecA [6]; read-out: IC50, translocation ATPase activity of EcSecA, Example 1",10 to 20 µM
same,IC50,EcSecA [7],4 µM
same,IC50,EcSecA [8],10 to 20 µM
CSc1nc(Cl)cc(Sc2nnc(-c3cc(C(F)(F)F)cc(C(F)(F)F)c3)[nH]2)n1 [SCA-107],IC50,BsSecA [4],> 200 µM
same,IC50,"EcSecA N68; Table 1, read-out: IC50, Intrinsic ATPase, EcSecA N68",30 µM
same,IC50,BaSecA1,0.7 µM
same,IC50,PaSecA,1.3 µM
same,IC50,"BsSecA [1]; Table 1, read-out: IC50, Ion Channel activity, BsSecA",2.1 µM
same,IC50,MsSecA,2.5 µM
same,IC50,MtbSecA,2 µM
same,IC50,SpSecA,0.7 µM
same,MIC,"S. pyogenes, MGAS5005",0.19 µM
same,IC50,"EcSecA [6]; read-out: IC50, Translocation ATPase, EcSecA, Table 1",28 µM
same,IC50,EcSecA [9],1.6 µM
same,IC50,SaSecA1,0.6 µM
same,IC50,EcSecA [10],25 µM
same,MIC,S. aureus Mu50,0.5 µM
same,IC50,BsSecA2,65 µM
same,IC50,SaSecA2,50 µM
